Assay results reported in ChEMBL document CHEMBL4627264, “Synthesis and evaluation of novel radioiodinated PSMA targeting ligands for potential radiotherapy of prostate cancer” (Bioorg Med Chem, 2020).
Active and inactive are the calls of the source. The calls are words filed in the database; no cut-off is given here.

How the values were obtained:
[1] = Drug uptake in kidney of CD-1 nude mouse xenografted with PC3-PIP cells at 6 nM to 9 nM, iv measured at 4 hrs using 125I-labelled compound by gamma counter analysis; type: ADME, organism-based; conditions: in vivo, 0.006 µM
[2] = Drug internalization in human PC3-PIP cells at 0.2 nM incubated for 2 hrs followed by compound washout measured using 125I-labelled compound by gamma counter analysis; type: ADME, cell-based; conditions: 0.0002 µM
[3] = Drug uptake in human PC3-PIP cells at 0.2 nM incubated prior to compound washout measured using 125I-labelled compound by gamma counter analysis; type: ADME, cell-based; conditions: 0.0002 µM, TDE = time-dependent effect
[4] = Drug uptake in kidney of CD-1 nude mouse xenografted with PC3-PIP cells at 6 nM to 9 nM, iv measured after 2 mins to 1440 mins using 125I-labelled compound by gamma counter analysis; type: ADME, organism-based; conditions: in vivo, 0.006 µM
[5] = target: T1, Glutamate carboxypeptidase 2 (Homo sapiens, UniProt Q04609); assay: Binding affinity to PSMA in human PC3-PIP cells assessed as drug uptake per 10^6 cells at 0.2 nM incubated for 2 hrs followed by compound washout measured using 125I-labelled compound by gamma counter analysis; type: ADME, cell-based; conditions: 0.0002 µM
Target sequence in this assay (Q04609 whole entry): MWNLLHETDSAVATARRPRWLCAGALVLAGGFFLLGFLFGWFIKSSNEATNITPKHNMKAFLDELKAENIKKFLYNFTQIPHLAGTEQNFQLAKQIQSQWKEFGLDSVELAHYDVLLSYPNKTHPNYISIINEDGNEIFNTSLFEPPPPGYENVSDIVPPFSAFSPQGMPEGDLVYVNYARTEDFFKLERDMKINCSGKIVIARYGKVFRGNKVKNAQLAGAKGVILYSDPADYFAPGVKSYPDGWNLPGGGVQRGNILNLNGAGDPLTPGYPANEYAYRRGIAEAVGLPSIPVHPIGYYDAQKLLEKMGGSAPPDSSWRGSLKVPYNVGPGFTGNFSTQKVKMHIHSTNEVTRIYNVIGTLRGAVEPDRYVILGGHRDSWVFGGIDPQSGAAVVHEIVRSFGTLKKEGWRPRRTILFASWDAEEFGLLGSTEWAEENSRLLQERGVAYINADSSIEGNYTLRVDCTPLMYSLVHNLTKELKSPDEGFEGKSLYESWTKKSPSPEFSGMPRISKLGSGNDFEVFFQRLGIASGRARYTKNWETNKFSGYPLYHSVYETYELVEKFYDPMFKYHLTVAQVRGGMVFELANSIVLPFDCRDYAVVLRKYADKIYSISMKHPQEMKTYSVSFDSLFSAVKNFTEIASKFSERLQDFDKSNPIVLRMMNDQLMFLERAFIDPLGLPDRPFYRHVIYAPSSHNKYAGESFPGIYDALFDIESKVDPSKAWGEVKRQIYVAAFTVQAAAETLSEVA

[6] = Drug uptake in human PC3-PIP cells at 0.2 nM incubated for 1 hr in presence of PSMA inhibitor PSMA-617 measured using 125I-labelled compound by gamma counter analysis; type: ADME, cell-based; conditions: 0.0002 µM
[7] = Drug uptake in tumor of CD-1 nude mouse xenografted with PC3-PIP cells at 6 nM to 9 nM, iv measured at 1 hr using 125I-labelled compound by gamma counter analysis; type: ADME, organism-based, Neoplasm; conditions: in vivo, 0.006 µM
[8] = target: T1, Glutamate carboxypeptidase 2; assay: Binding affinity to PSMA in human PC3-PIP cells assessed as drug uptake per 10^6 cells at 0.2 nM incubated for 1 hr followed by compound washout measured using 125I-labelled compound by gamma counter analysis; type: ADME, cell-based; conditions: 0.0002 µM
Target sequence in this assay (Q04609 whole entry): as above

[9] = Drug uptake in tumor of CD-1 nude mouse xenografted with PC3-PIP cells at 6 nM to 9 nM, iv measured at 4 hrs using 125I-labelled compound by gamma counter analysis; type: ADME, organism-based, Neoplasm; conditions: in vivo, 0.006 µM
[10] = Drug internalization in human PC3-PIP cells at 0.2 nM incubated for 1 hr followed by compound washout measured using 125I-labelled compound by gamma counter analysis; type: ADME, cell-based; conditions: 0.0002 µM
[11] = Drug uptake in kidney of CD-1 nude mouse xenografted with PC3-PIP cells at 6 nM to 9 nM, iv measured at 1 hr using 125I-labelled compound by gamma counter analysis; type: ADME, organism-based; conditions: in vivo, 0.006 µM
[12] = target: T1, Glutamate carboxypeptidase 2; assay: Inhibition of […] binding to PSMA in human PC3-PIP cells at 0.2 nM incubated for 1 hr; type: cell-based
Target sequence in this assay (Q04609 whole entry, looked up): as the sequence (Q04609 whole entry) above

[13] = Uptake in kidney of CD-1 nude mouse xenografted with PC3-PIP cells at 6 nM to 9 nM, iv measured at 1 hr using 125I-labelled compound by gamma counter analysis; conditions: in vivo, 0.006 µM
[14] = Uptake in kidney of CD-1 nude mouse xenografted with PC3-PIP cells at 6 nM to 9 nM, iv measured at 4 hrs using 125I-labelled compound by gamma counter analysis; conditions: in vivo, 0.006 µM
[15] = Drug uptake in tumor of CD-1 nude mouse xenografted with PC3-PIP cells at 6 nM to 9 nM, iv measured at 24 hrs using 125I-labelled compound by gamma counter analysis; type: ADME, organism-based, Neoplasm; conditions: in vivo, 0.006 µM
[16] = Uptake in kidney of CD-1 nude mouse xenografted with PC3-PIP cells at 6 nM to 9 nM, iv measured at 24 hrs using 125I-labelled compound by gamma counter analysis; conditions: in vivo, 0.006 µM
[17] = Drug uptake in spleen of CD-1 nude mouse xenografted with PC3-PIP cells at 6 nM to 9 nM, iv measured at 4 hrs using 125I-labelled compound by gamma counter analysis; type: ADME, organism-based; conditions: in vivo, 0.006 µM
[18] = Clearance in tumor of CD-1 nude mouse xenografted with PC3-PIP cells at 6 nM to 9 nM, iv measured at 4 hrs using 125I-labelled compound by gamma counter analysis; type: ADME, organism-based, Neoplasm; conditions: in vivo, 0.006 µM
[19] = target: T1, Glutamate carboxypeptidase 2; assay: Displacement of [125I]MIP-1095 from PSMA in human PC3-PIP cells after 1 hr by gamma counter analysis; type: cell-based
Target sequence in this assay (Q04609 whole entry): as above

[20] = Drug uptake in liver of CD-1 nude mouse xenografted with PC3-PIP cells at 6 nM to 9 nM, iv measured at 4 hrs using 125I-labelled compound by gamma counter analysis; type: ADME, organism-based; conditions: in vivo, 0.006 µM
[21] = Drug uptake in liver of CD-1 nude mouse xenografted with PC3-PIP cells at 6 nM to 9 nM, iv measured at 24 hrs using 125I-labelled compound by gamma counter analysis; type: ADME, organism-based; conditions: in vivo, 0.006 µM
[22] = Drug uptake in liver of CD-1 nude mouse xenografted with PC3-PIP cells at 6 nM to 9 nM, iv measured at 1 hr using 125I-labelled compound by gamma counter analysis; type: ADME, organism-based; conditions: in vivo, 0.006 µM
[23] = Drug uptake in kidney of CD-1 nude mouse xenografted with PC3-PIP cells at 6 nM to 9 nM, iv measured at 24 hrs using 125I-labelled compound by gamma counter analysis; type: ADME, organism-based; conditions: in vivo, 0.006 µM
[24] = Drug uptake in large intestine of CD-1 nude mouse xenografted with PC3-PIP cells at 6 nM to 9 nM, iv measured at 4 hrs using 125I-labelled compound by gamma counter analysis; type: ADME, organism-based; conditions: in vivo, 0.006 µM
[25] = Drug uptake in small intestine of CD-1 nude mouse xenografted with PC3-PIP cells at 6 nM to 9 nM, iv measured at 1 hr using 125I-labelled compound by gamma counter analysis; type: ADME, organism-based; conditions: in vivo, 0.006 µM
[26] = Drug uptake in liver of CD-1 nude mouse xenografted with PC3-PIP cells at 6 nM to 9 nM, iv measured at 2 mins using 125I-labelled compound by gamma counter analysis; type: ADME, organism-based; conditions: in vivo, 0.006 µM
[27] = Drug uptake in large intestine of CD-1 nude mouse xenografted with PC3-PIP cells at 6 nM to 9 nM, iv measured at 1 hr using 125I-labelled compound by gamma counter analysis; type: ADME, organism-based; conditions: in vivo, 0.006 µM

Drug uptake [2] | Drug uptake [3] | Drug uptake [4] | Drug uptake [5] | Drug uptake [6] | Drug uptake [8] | Drug uptake [10] | inhibition [12] | Compound | further results
45% | Tde | Active | 76 %ID | Not Active | 43 %ID | 36% | – | O=C(O)CC[C@H](NC(=O)N[C@@H](CCCCNC(=O)[C@H](Cc1ccccc1)NC(=O)[C@H](CCC(=O)O)NC(=O)c1ccc([125I])cc1)C(=O)O)C(=O)O | Drug uptake [1]: 25.4 % ID/g; Drug uptake [7]: 10.7 % ID/g; Drug uptake [9]: 5.17 % ID/g; Drug uptake [11]: 41.4 % ID/g
– | – | – | – | – | – | – | Active | O=C(O)CC[C@H](NC(=O)N[C@@H](CCCCNC(=O)[C@H](Cc1ccccc1)NC(=O)[C@H](CCC(=O)O)NC(=O)c1ccc(I)cc1)C(=O)O)C(=O)O | –
64% | Tde | Active | 67 %ID | Not Active | 39 %ID | 62% | – | O=C(O)CC[C@H](NC(=O)N[C@@H](CCCCNC(=O)[C@H](Cc1ccccc1)NC(=O)COc1ccc(C[C@H](NC(=O)[C@H](CCC(=O)O)NC(=O)[C@H](CCC(=O)O)NC(=O)c2ccc([125I])cc2)C(=O)O)cc1)C(=O)O)C(=O)O | Drug uptake [13]: 127.8 % ID/g; Drug uptake [7]: 17.2 % ID/g; Drug uptake [9]: 17.4 % ID/g; Drug uptake [14]: 138.1 % ID/g; Drug uptake [15]: 11.1 % ID/g; Drug uptake [16]: 136.4 % ID/g
– | – | – | – | – | – | – | Active | O=C(O)CC[C@H](NC(=O)N[C@@H](CCCCNC(=O)[C@H](Cc1ccccc1)NC(=O)[C@H](CCC(=O)O)NC(=O)[C@H](CCC(=O)O)NC(=O)c1ccc(I)cc1)C(=O)O)C(=O)O | –
60% | Tde | Active | 76 %ID | Not Active | 49 %ID | 58% | – | O=C(O)CC[C@H](NC(=O)N[C@@H](CCCCNC(=O)[C@H](Cc1ccccc1)NC(=O)COc1ccc(C[C@H](NC(=O)[C@H](CCC(=O)O)NC(=O)c2ccc([125I])cc2)C(=O)O)cc1)C(=O)O)C(=O)O | Drug uptake [1]: 114.7 % ID/g; Drug uptake [17]: 15.4 % ID/g; Drug uptake [7]: 26.2 % ID/g; CL [18]: 45%; Drug uptake [9]: 14.3 % ID/g; Drug uptake [11]: 174.6 % ID/g
– | – | – | – | – | – | – | Active | O=C(O)CC[C@H](NC(=O)N[C@@H](CCCCNC(=O)[C@H](Cc1ccccc1)NC(=O)COc1ccc(C[C@H](NC(=O)[C@H](CCC(=O)O)NC(=O)c2ccc(I)cc2)C(=O)O)cc1)C(=O)O)C(=O)O | –
– | – | – | – | – | – | – | Active | O=C(O)CC[C@H](NC(=O)N[C@@H](CCCCNC(=O)[C@H](Cc1ccccc1)NC(=O)COc1ccc(C[C@H](NC(=O)CNC(=O)c2ccc(I)cc2)C(=O)O)cc1)C(=O)O)C(=O)O | IC50 [19]: 1.33 nM
47% | Tde | Active | 75 %ID | Not Active | 43 %ID | 37% | – | O=C(O)CC[C@H](NC(=O)N[C@@H](CCCCNC(=O)[C@H](Cc1ccccc1)NC(=O)[C@H](CCC(=O)O)NC(=O)[C@H](CCC(=O)O)NC(=O)c1ccc([125I])cc1)C(=O)O)C(=O)O | Drug uptake [1]: 80.3 % ID/g; Drug uptake [20]: 3.64 % ID/g; Drug uptake [7]: 18.5 % ID/g; Drug uptake [21]: 0.17 % ID/g; Drug uptake [22]: 7.18 % ID/g; Drug uptake [9]: 23.1 % ID/g; Drug uptake [23]: 6.91 % ID/g; Drug uptake [15]: 17 % ID/g; Drug uptake [11]: 71.8 % ID/g
– | – | – | – | – | – | – | – | O=C(O)CC[C@H](NC(=O)N[C@@H](CCCCNC(=O)Nc1ccc(I)cc1)C(=O)O)C(=O)O [MIP-1095] | IC50 [19]: 3 nM
76% | Tde | Not Active | 60 %ID | Not Active | 31 %ID | 73% | – | O=C(O)CC[C@H](NC(=O)N[C@@H](CCCCNC(=O)[C@H](Cc1ccccc1)NC(=O)COc1ccc(C[C@H](NC(=O)Nc2ccc([125I])cc2)C(=O)O)cc1)C(=O)O)C(=O)O | Drug uptake [24]: 51.4 % ID/g; Drug uptake [25]: 49.7 % ID/g; Drug uptake [26]: 50.6 % ID/g
– | – | – | – | – | – | – | Active | O=C(O)CC[C@H](NC(=O)N[C@@H](CCCCNC(=O)[C@H](Cc1ccccc1)NC(=O)COc1ccc(C[C@H](NC(=O)Nc2ccc(I)cc2)C(=O)O)cc1)C(=O)O)C(=O)O | IC50 [19]: 13 nM
55% | Tde | Not Active | 52 %ID | Not Active | 36 %ID | 51% | – | O=C(O)CC[C@H](NC(=O)N[C@@H](CCCCNC(=O)[C@H](Cc1ccccc1)NC(=O)COc1ccc(C[C@H](NC(=O)CNC(=O)c2ccc([125I])cc2)C(=O)O)cc1)C(=O)O)C(=O)O | Drug uptake [24]: 9.98 % ID/g; Drug uptake [27]: 21.6 % ID/g; Drug uptake [26]: 29.4 % ID/g
47% | Tde | Active | 53 %ID | Not Active | 40 %ID | 38% | – | O=C(O)CC[C@H](NC(=O)N[C@@H](CCCCNC(=O)Nc1ccc([125I])cc1)C(=O)O)C(=O)O | Drug uptake [20]: 6.45 % ID/g; Drug uptake [21]: 0.71 % ID/g; Drug uptake [22]: 10.2 % ID/g
– | – | – | – | – | – | – | Active | O=C(O)CC[C@H](NC(=O)N[C@@H](CCCCNC(=O)[C@H](Cc1ccccc1)NC(=O)COc1ccc(C[C@H](NC(=O)[C@H](CCC(=O)O)NC(=O)[C@H](CCC(=O)O)NC(=O)c2ccc(I)cc2)C(=O)O)cc1)C(=O)O)C(=O)O | IC50 [19]: 3.52 nM
